Test results: PMC5344539, “Nematode neuropeptides as transgenic nematicides” (PLoS Pathogens, 2017)
Entries after “also recorded” stand apart in the source; their conditions may differ.

Assays:
[1] = tested on: M. incognita J2s; assay: Plant protection assay, C. reinhardtii secreting uNLPs; format: in vivo, Meloidogyne incognita; conditions: Fig 4A; peptide secreted by transgenic C. reinhardtii culture in tomato invasion arena with 500 J2s; relative to untransformed C. reinhardtii = 100%; mean
Procedure: (§1) Tomato seeds were sterilised with 2.5% NaOCl for 15 minutes, washed 5 times in ddH20 and germinated on 0.5% Murashige and Skoog plates at 23°C. […] Invasion assays were performed by mixing 500 pre-treated M. incognita or G. pallida J2s with agar slurry and a single tomato seedling (2 days post germination) in a 6 well plate. Assays were left at 23°C for 24 hours in the case of M. incognita and at 18°C for 24 hours in the case of G. pallida under a 16 hour light and 8 hour darkness cycle. Seedlings were stained using acid fuschin [69] and the number of nematodes within the roots counted. At least five seedlings were used for M. incognita infections assays, with at least 15 seedlings used for G. pallida infections assays (due to increased variation).
(§2) B. subtilis were grown overnight in LB media containing ampicillin (100 μg/ml) at 37°C with shaking, and harvested in the log phase of growth determined by measuring OD600nm. Five ml of culture at 0.5 OD was spun down and the pellet mixed with 3 ml of agar slurry and 500 J2s from either G. pallida or M. incognita. C. reinhardtii clones were grown at 23°C with shaking, cultures in the log phase were measured at OD750 and 5 ml of culture at 0.5 OD was pelleted by centrifugation. C. reinhardtii pellets were mixed with 3 ml of agar slurry and 500 J2s from either G. pallida or M. incognita. Plant invasion assays were performed as described above. […]

[2] = tested on: G. pallida J2s; assay: Plant protection assay, B. subtilis secreting uNLPs; format: in vivo, Globodera pallida; conditions: Fig 4D; peptide secreted by transgenic B. subtilis culture in tomato invasion arena with 500 J2s; control = 100%; mean
Procedure: as §1, §2

[3] = tested on: G. pallida J2s; assay: Tomato invasion assay with uNLP pre-treated J2s; format: in vivo, Globodera pallida; conditions: 100 μM uNLP, 24 h; tomato cv. Moneymaker; relative to controls
Procedure: (§3) Predicted uNLPs from both M. incognita and G. pallida were synthesised by EZBiolab and dissolved into pH adjusted ddH2O to make a 5 mM stock which was aliquoted and stored at -20°C. J2s of both M. incognita and G. pallida were incubated for 24 hours in 200 μl of each peptide in a 24 well plate (SPL Lifesciences, South Korea) at a defined concentration.
as §1

[4] = tested on: G. pallida J2s; assay: Chemosensory (chemotaxis) assay of uNLP pre-treated J2s towards tomato root exudate; format: in vivo, Globodera pallida
Procedure: as §3
A 60 mm Petri dish was divided into two segments, a positive and a negative side, with a 0.5 cm 'dead zone' either side of the centre point. The petri dish was filled with 15 ml of 0.25% w/v agar which was allowed to solidify. 3 ml of 0.25% w/v agar slurry in spring water (pH 7, agitated with a magnetic stirrer for several hours to give a smooth consistency) was added to the petri dish and spread evenly over the surface. Root diffusate (attractant) and water only (control) 0.25% agar plugs were embedded in the agar slurry, either side of the assay arena. Root diffusate was collected from 10 tomato plants, aged 3–6 weeks in 1 litre pots, by pouring 500 ml of ddH20 through the soil three times. Diffusate from each plant was combined, filter sterilised and stored at 4°C for a maximum of 1 month. Root diffusate agar plugs were made by melting 1.25% agar in ddH20, cooling to 50°C before mixing with 4 parts of root diffusate. The agar was then allowed to solidify at room temperature. 100 uNLP pre-treated M. incognita or G. pallida J2s were added by pipette to the centre of the plate. J2s which moved out of the 'dead zone' after 3 hours were counted and their location (+/-) scored. The distribution of J2s were used to create a chemotaxis index for each plate, which formed one replicate, a total of 10 replicates where completed for each uNLP treatment.

[5] = tested on: M. incognita J2s; assay: as above; format: in vivo, Meloidogyne incognita
[6] = tested on: M. incognita J2s; assay: Tomato invasion assay with uNLP pre-treated J2s; format: in vivo, Meloidogyne incognita; conditions: for % Invasion: mean
In short: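 J2s pre-incubated 24 h in uNLP peptide at a defined concentration, then 500 J2s mixed in agar slurry with one 2-day-old tomato seedling. Invasion ran 24 h at 23°C (M. incognita) or 18°C (G. pallida), 16 h light/8 h dark; nematodes in acid fuchsin-stained roots counted, ≥5 or ≥15 seedlings respectively.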

[7] = 100 μM uNLP, 24 h, relative to controls

SFDSFTGPGFTGLD [Mi-NLP-15b, predicted unamidated NLP perfectly conserved between M. incognita and G. pallida; synthesised, also secreted from transgenic microbes]
% Invasion [1]: 10.82% | % Invasion [2]: 51.98% | effect on host invasion (in words) [3]: does not inhibit host invasion | effect on chemosensation (in words) [4, 7]: inhibits G. pallida chemotaxis | CI score ([4]; Fig 2A, J2s incubated in 100 μM uNLP for 24 h, tomato cv. Moneymaker root exudate vs water agar plugs, counted after 3 h, mean of 10 replicates of 100 J2s, control 0.4154): -0.04762 | effect on chemosensation (in words) [5, 7]: inhibit chemosensation; also recorded: inhibited | CI score ([5]; Fig 1A, J2s incubated in 100 μM uNLP for 24 h, tomato cv. Moneymaker root exudate vs water agar plugs, counted after 3 h, mean of 10 replicates of 100 J2s, control 0.4426): -0.3408 | CI score ([5]; Fig 3A, 100 pM peptide, 24 h, control 0.4133, mean): 0.03117 | CI score ([5]; Fig 3A, 1 nM peptide, 24 h, control 0.4133, mean): -0.07105 | CI score ([5]; Fig 3A, 10 nM peptide, 24 h, control 0.4133, mean): -0.1741 | CI score ([5]; Fig 3A, 100 nM peptide, 24 h, control 0.4133, mean): -0.1195 | CI score ([5]; Fig 3A, 1 µM peptide, 24 h, control 0.4133, mean): -0.1344 | CI score ([5]; Fig 3A, 10 µM peptide, 24 h, control 0.4133, mean): -0.03579 | CI score ([5]; Fig 3A, 100 µM peptide, 24 h, control 0.4133, mean): -0.3782 | CI score ([5]; Fig 3A, concentration printed as 22:00:00, 24 h, control 0.4133, mean): -0.1553 | lowest concentration inhibiting chemosensation ([5]; serial dilution, 24 h exposure (Fig 3)): ≤ 10 pM | effect on host invasion (in words) ([6]; 100 μM uNLP, 24 h, tomato cv. Moneymaker, relative to controls): inhibited | % Invasion ([6]; Fig 1B, 500 J2s incubated in 100 μM uNLP for 24 h, single tomato seedling, 24 h at 23°C, normalised to negative control = 100%): 32.22% | % Invasion ([6]; Fig 3B, 100 nM peptide, 24 h, control = 100%): 69.90% | % Invasion ([6]; Fig 3B, 1 µM peptide, 24 h, control = 100%): 59.05% | % Invasion ([6]; Fig 3B, 10 µM peptide, 24 h, control = 100%): 54.62% | % Invasion ([6]; Fig 3B, 100 µM peptide, 24 h, control = 100%): 35.06%
